From patent US20250281392A1, “TOPICAL DELIVERY OF EPINEPHRINE AND PRODRUG COMPOSITIONS” (Aquestive Therapeutics, Inc., priority 2024, published 2025)
Where a name gives a salt, the structure may show the parent alone.

Assays:
NK cells = test: NK activation assay, CD25+CD69+ NK cells by flow cytometry; assay type: cell-based, human; conditions: for % inactivation relative to vehicle: human NK % CD25+CD69+ cells; for suppression of activation of NK cells, Epinephrine and Dipivefrin combined for analysis: exceeding IC50 at 70, 140 and 280 nM
Procedure: IC50 is a measurement of how much of a drug is needed to inhibit a biological process by half.
Peripheral blood mononuclear cells (PBMC) were isolated over a density gradient from six donor buffy coats and CD56+NK were separated using magnetic selection. Purity of sorted NIK cells was assessed by flow cytometry using CD56 as a marker of NK cells.
Following magnetic isolation, NK cells were seeded at 5×10^5 NK cells per well in a 48 well plate alongside NK activation beads (prepared as per manufacturer's protocol) at a 1:1 bead to cell ratio, IL-2 (final concentration 500 IU/ml) and either prodrug/epinephrine at 5 different doses (see section 3.6 below for further details), cortisol/dexamethasone (positive controls) or vehicle (media only). NK cells were cultured with the NK activation beads for two days at 37° C. in the presence of 5% CO2. After two days, supernatants were collected from each condition for future TR-FRET analysis (AQV-24-001_AM-1 only, see below) and the remaining cells from each condition were assessed for expression of surface markers CD25, CD69 and for cell viability using eBioscience™ Fixable Viability Dye. Samples were then treated with eBioscience Intracellular Fixation & Permeabilization Buffer Set to allow staining of intracellular granzyme B. Marker expression was determined by flow cytometry and appropriate “Fluorescence-Minus-One controls” controls were used. Flow cytometry data was analysed using FlowJo analysis software and data was graphed using Graph Pad Prism.
The study was performed in: 3 donors Each experimental condition was tested in: singlicate. For Flow cytometry, viability was measured and cells were phenotyped for NK cell activation (CD25, CD69, granzyme B). Raw and analysed data are provided.
Each experimental condition was tested in: singlicate. For Flow cytometry, viability was measured and cells were phenotyped for NK cell activation (CD25, CD69, granzyme B). Raw and analysed data are provided. Supernatants were harvested in triplicate per condition and stored until further analysis of IFNγ content by TR-FRET. Data was analysed and graphed. Raw and analysed data are provided. […]

[1] = Stability of topical gel formulations (assay and degradant generation at 25° C./60% RH and 40° C./75% RH); assay type: physicochemical; conditions: Formulation 1, 5% w/w API; accelerated conditions 40° C./75% RH
Procedure: An exemplary formulation is provided below.
Multiple dipivefrin gel formulations were evaluated. Formulations 1-3: API loading ranging from 2.5-10% w/w. Formulation 4: Reduced ethyl alcohol (50%) of original loading. Formulation 5: Reduced diethylene glycol monoethyl ether (50%) of original loading. Formulation 6: Reduced propylene glycol (50%) of original loading.
The stability of the topical formulation was tested in two assays. Formulation 1 was evaluated with API loading of 5% w/w. Assay trends are directed downward under accelerated conditions (40° C./75% RH)
Stability trends for a claimed topical formulation (AQEP-09) was evaluated by measuring degradant generation. Formulation 1 was tested with API loading of 5% (% w/w).
The following formulations are exemplary.

Granzyme B = conditions: donors 4-6, from 100 μg/ml, versus vehicle control
Procedure: NK cells were cultured with the NK activation beads for two days at 37° C. in the presence of 5% CO2. […] Samples were then treated with eBioscience Intracellular Fixation & Permeabilization Buffer Set to allow staining of intracellular granzyme B. Marker expression was determined by flow cytometry and appropriate “Fluorescence-Minus-One controls” controls were used. Flow cytometry data was analysed using FlowJo analysis software and data was graphed using Graph Pad Prism.
CD56+ cells were isolated from three donor buffy coats by magnetic separation. […] Next, the effect of compound addition at different timepoints and doses, following either optimal or suboptimal NK activation was determined by measuring expression of the activation markers CD25, CD69 and Granzyme B on NK cells. […] Treatment was administered at 0, 6, 24 and 30 hours. The controls were 200 nM Cortisol and 500 nM Deuruxolitinib (Jak inhibitor).

[2] = parameters: species or system Sinclair Nanopigs; conditions: in vivo
Procedure: A study was conducted to evaluate the systemic pharmacokinetic characteristics of Dipivefrin Topical Gel when administered once by topical application to intact, abraded, and wounded skin of Sinclair Nanopigs™. The study design was as follows. Animals were food fasted for at least 8 hours. Animals were monitored until fully recovered. Anesthesia procedures were documented and retained in the study data. The dose formulations were administered to appropriate animals by topical application on the dorsal surface (Dose Site #1) once on Day 1. The dose site was and/or shaved and marked at least one day prior to Day 1. At least the four corners of the dose sites will be marked with indelible ink based on the appropriate dose area. At least the four corners of the tape stripping area were marked with indelible ink for Group 2 and 3 animals. The site for Group 2 and 3 animals was gently abraded via tape stripping (conducted 50 times). All animals will have a uniform topical application using a gloved hand and/or spatula to rub the entire dose amount throughout the total dose area (for 1 minute). Topical application to the dose area for Group 4 animals will include application of the dose amount over the created wounds. If an animal is observed to have test material remaining following the application time, the observation will be documented. Dose formulations will be allowed to equilibrate at ambient temperature for at least 15 minutes prior to and continuously throughout dose administration Prior to dermal (topical) application on Day 1, the dose site for Group 1 to 3 animals were wiped clean with water-moistened gauze or paper towels then wiped dry with dry gauze or paper towels. Following washing and drying, […]. On Day 1, Group 4 animals: The animal backs were prepared for wound creation by performing a surgical scrub. Two (2) wounds were created on the dorsal surface of each Group 4 animal within a 7×7 cm area using an 8 mm punch biopsy. Steps were taken to ensure the area designated for wound creation is within the total dose area (8×8 cm). […]

IL-1b, IL-10 = conditions: cited from earlier work
[3] = Ex vivo permeation and flux of epinephrine prodrug topical gels through porcine ear tissue; assay type: in vitro ADME
Procedure: Both in vitro and ex vivo permeation was measured for the following formulation. […]
Exemplary formulations were evaluated including Formulations 1-3, with API loading from 2.5-10% w/w.
(§1) The claimed topical compositions were tested for permeation using both porcine ear and buccal tissue.
(§2) The tested tissues were Porcine Ear vs. Buccal Tissue through 24 hours.

[4] = human, in vivo
Procedure: A two-part clinical study was conducted for alopecia areata (AA) patients. AA is an autoimmune disease leading to hair loss on the scalp, face, and in more severe cases, other body areas. The mechanisms leading to AA are multifactorial, including an autoimmune response that results in the loss of hair follicle immune privilege. The patient will be given treatment based on disease severity (>50% involvement—JAK inhibitors; <50% involvement—corticosteroids).
In Part 1, single ascending doses of a single formulation of AQST-108 were given. […] The 1.0% AQST-108 strength was down-selected to Part 2.
In Part 2, a single dose of 1 of 3 formulations of 1.0% of AQST-108 was given.

[5] = Ex vivo permeation and flux of dipivefrin topical gel through buccal tissue; assay type: in vitro ADME, porcine; conditions: through 24 hours
Procedure: as §1, §2

[6] = In vitro permeation and flux of dipivefrin topical gel through CelluSep; assay type: in vitro ADME; conditions: 5.0% dipivefrin (w/w) topical gel
Procedure: Both in vitro and ex vivo permeation was measured for the following formulation. […] Rapid release from the topical gel matrix was observed. Referring to FIG. 4A, the amount permeated (in ug) was measured as a function of time (in minutes). […] The flux (ug/cm^2*min) was measured as a function of time (minutes).

[7] = Non-clinical pharmacokinetic study of 2.5% topical gel in minipigs; assay type: in vivo
Procedure: A non-clinical pharmacokinetic study was also conducted in minipigs. In this study, a 2.5% topical gel was applied at 30 mg/cm2 in 7, 10 and 12% body surface area (BSA) coverage respectively, and data was collected over 6 hours.

[8] = male, Wistar Han, rat, in vivo
Procedure: A study was conducted to evaluate the pharmacokinetics of the claimed composition in a rat model. The purpose of this study was to enable selection of dosing regimen to be used on Passive Cutaneous Anaphylaxis (PCA) model in mammalian subjects. In this study, 15 male rats were studied to model the effects of the claimed composition on passive cutaneous anaphylaxis with a topical route of exposure. […] The Wistar Han rat was chosen as the animal model for this study as it is an appropriate model to study the effects of drug candidates on passive cutaneous anaphylaxis, based on available literature.
In this study, the pharmaceutical composition was applied on the dorsal side of both ears for groups 2-5 and only on the left ear of group 1 using a gloved finger until absorbed. The topical gel was applied as an even layer with no rubbing required.
The dark gray bar represents concentration in ng/g after 30 minutes of exposure for both 1% (low dose) and 2.5% (high dose) compositions. The light gray bar represents concentration in ng/g after 60 minutes of exposure for both 1% (low dose) and 2.5% (high dose) compositions.

TNFα, IL-10 = conditions: cited from earlier work
[9] = Ex vivo permeation of ondansetron formulation through dermatomed porcine ear (tissue thickness / tissue type); assay type: in vitro ADME
Procedure: Referring to FIG. 2A (through 6 hour timepoint) and FIG. 2B (through 24 hour timepoint), dermatome sectioning of the porcine ear was conducted to sample membranes of varying thickness that both capture the complete epidermis and a varying thickness of the dermis. Dermatome sectioning completed at 200 μm, 300 μm, and 400 μm to provide membranes of a varying total thickness.
As porcine tissue varies with regard to stratum corneum and epidermal thickness as a function of sampling location, multiple sampling locations have been selected for comparison. Dermatome sectioning of multiple porcine tissue samples at a constant thickness. Dermatome sectioning completed at 400 μm. Tissue types evaluated included porcine ear, shoulder, rump, and belly locations
Referring to FIG. 3A (through 400 minutes) and FIG. 3B (through 1500 minutes), the average amount of ondansetron permeated (in ug) is measured as a function of time. The permeation is measured through varying intact porcine ear tissue types at constant thickness (400 um total thickness). […] Given the comparably low standard deviation and the lack of ondansetron detected in the receiver media at t=0 minutes compared to other tissue types, this tissue type has been selected for continued ex-vivo permeation method development.

[10] = tissue thickness 200 μm, donor cell empty
[11] = tissue thickness 400 μm, donor cell filled

## C[C@]12CCC(=O)C=C1CC[C@@H]1[C@@H]2[C@@H](O)C[C@@]2(C)[C@H]1CC[C@]2(O)C(=O)CO [Cortisol]
NK cells; 200 nM
  % inactivation relative to vehicle: 39%

## CNCC(O)c1ccc(OC(=O)C(C)C)c(OC(=O)C(C)C)c1 (stereo not drawn) [AQEP-09, Dibutepinephrine]
[1]
  degradant formation trends (epinephrine, PD-15, RRT 1.80): directed upward

## dipivefrin
Granzyme B
  Median Fluorescence Intensity (MFI) of Granzyme B: decreasing to some extent
NK cells; doses up to 5 ng/mL, comparable to 20 nM Cortisol
  reduction of NK cell activation as compared to control: about 12%
NK cells; higher doses, donors 4-6
  reduction in CD25+CD69+ NK cells compared to vehicle control: 5-12%
NK cells; lower doses, donors 2-3
  reduction in CD25+CD69+ NK cells compared to vehicle control: 7-12%

## CNC[C@H](O)c1ccc(O)c(O)c1 [Epinephrine]
NK cells; 5 doses, 6 donors (donor 1 removed)
  CD25+CD69+ NK cells compared to vehicle: consistent reduction
NK cells; 500 nM
  % inactivation relative to vehicle: 65%
NK cells; 1000 nM
  % inactivation relative to vehicle: 61%
NK cells; 2500 nM
  % inactivation relative to vehicle: 51%
NK cells; range of concentrations
  suppression of activation of NK cells, Epinephrine and Dipivefrin combined for analysis: effective suppression
[2]; Sinclair Nanopig, pig, topical or ocular
  wounded to intact skin ratio for Cmax, epinephrine plasma: 3.90
[2]
  PK parameters in plasma, intact skin versus abraded skin: no significant difference
IL-1b, IL-10; humans
  serum concentrations of IL-10: increases serum concentrations
IL-1b, IL-10; septic patients following treatment
  serum concentrations of IL-1b: decreased serum concentrations of IL-1b

## CNCC(O)c1ccc(OC(=O)C(C)(C)C)c(OC(=O)C(C)(C)C)c1 (stereo not drawn) [Dipivefrin HCl]
[3]; topical gel containing 0.5% or 5.0% (w/w) dipivefrin HCl, 400 μm tissue
  ex vivo permeation through porcine ear tissue: Significant permeation

## C[C@@H]1C[C@H]2[C@@H]3CCC4=CC(=O)C=C[C@]4(C)[C@@]3(F)[C@@H](O)C[C@]2(C)[C@@]1(O)C(=O)CO [Dexamethasone]
NK cells; 200 nM
  % inactivation relative to vehicle: 22%
NK cells; 1 μM
  % inactivation relative to vehicle: 19%

## CNC[C@H](O)c1ccc(OC(=O)C(C)(C)C)c(OC(=O)C(C)(C)C)c1 [dipivefrin]
NK cells; 500 nM
  % inactivation relative to vehicle: 67%
NK cells; 1000 nM
  % inactivation relative to vehicle: 68%
NK cells; 2500 nM
  % inactivation relative to vehicle: 66%
NK cells; range of concentrations
  suppression of activation of NK cells, Epinephrine and Dipivefrin combined for analysis: effective suppression
NK cells; range of concentrations, exceeding IC50 at 140 and 280 nM
  modulation of NK cell activity: effectively deactivated NK cells
[4]
  AQST-108 plasma concentrations: No AQST-108 plasma concentrations
  serious adverse events (SAE) or topical adverse events (AE): No serious adverse events
  systemic epinephrine concentrations: within normal physiologic range
[5]
  permeation through buccal tissue versus porcine ear: reduced dipivefrin permeation
[6]
  in vitro release from the topical gel matrix (permeation and flux): Rapid release
[2]
  PK parameters in plasma, intact skin versus abraded skin: no significant difference
[7]; 30 mg/cm2, 7, 10 and 12% BSA
  duration of high exposure in dermis and epidermis: more than 6 hours
[7]; high body surface area coverage
  systemic exposure: no systemic exposure
[8]
  duration of epinephrine exposure: > 1 h
[3]; topical gel, 2.5% to 10% API loading, 24 hours
  permeation as a function of API loading: Dose proportional increases in permeation

## NC[C@H](O)c1ccc(O)c(O)c1 [norepinephrine]
TNFα, IL-10
  IL-10 secretion: inducing rapid IL-10 secretion
  TNFα: potently suppresses

## Cc1nccn1CC1CCc2c(c3ccccc3n2C)C1=O (stereo not drawn) [Ondansetron]
[9]; [10]
  Amount Ondansetron Permeated, 6 hours: 21.2 (±2.5) μg
  Amount Ondansetron Permeated, 24 hours: 542.4 (±74.3) μg
[9]; [11]
  Amount Ondansetron Permeated, 6 hours: 5.7 (±3.9) μg
  Amount Ondansetron Permeated, 24 hours: 43.8 (±19.4) μg
